# Laboratory results taken from ChEMBL document CHEMBL5512651, “Synthesis and biological evaluation of 4-imidazolidinone-containing compounds as potent inhibitors of the MDM2/p53 interaction” (Eur J Med Chem, 2024).
# Calls of active or inactive are those of the source. The rule behind the calls is not given here.
# Assays:
# [1] = target: Tumour suppressor protein p53/Mdm4 (Homo sapiens, UniProt O15151); assay: Inhibition of MDM4/p53 (unknown origin) interaction by fluorescence polarization assay; format: protein assay
# Sequence of Tumour suppressor protein p53/Mdm4 (P04637 whole entry): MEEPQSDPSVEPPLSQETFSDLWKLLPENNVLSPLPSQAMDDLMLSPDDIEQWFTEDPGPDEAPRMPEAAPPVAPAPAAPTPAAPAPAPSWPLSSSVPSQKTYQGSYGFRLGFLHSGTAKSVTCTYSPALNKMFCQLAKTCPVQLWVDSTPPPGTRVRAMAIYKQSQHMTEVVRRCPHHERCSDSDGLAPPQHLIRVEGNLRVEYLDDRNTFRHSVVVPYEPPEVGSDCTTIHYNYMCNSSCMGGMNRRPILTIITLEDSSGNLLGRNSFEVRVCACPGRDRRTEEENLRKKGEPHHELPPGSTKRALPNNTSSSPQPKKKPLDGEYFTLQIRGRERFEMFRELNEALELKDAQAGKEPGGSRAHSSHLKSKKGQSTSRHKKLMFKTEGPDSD
# Sequence of Tumour suppressor protein p53/Mdm4 (O15151 whole entry): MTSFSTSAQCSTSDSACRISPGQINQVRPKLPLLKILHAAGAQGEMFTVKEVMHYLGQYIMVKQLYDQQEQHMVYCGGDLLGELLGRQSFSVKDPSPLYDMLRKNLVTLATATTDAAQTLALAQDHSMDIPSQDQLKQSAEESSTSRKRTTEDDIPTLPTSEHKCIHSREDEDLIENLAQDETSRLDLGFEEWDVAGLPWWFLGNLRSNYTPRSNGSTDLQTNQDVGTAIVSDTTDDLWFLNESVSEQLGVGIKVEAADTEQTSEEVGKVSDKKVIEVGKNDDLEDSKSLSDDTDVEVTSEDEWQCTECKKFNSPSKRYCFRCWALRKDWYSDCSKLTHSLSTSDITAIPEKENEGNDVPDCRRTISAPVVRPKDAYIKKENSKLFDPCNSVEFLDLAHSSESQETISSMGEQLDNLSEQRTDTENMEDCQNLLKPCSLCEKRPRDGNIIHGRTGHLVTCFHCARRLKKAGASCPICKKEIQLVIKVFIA
# [2] = target: Cellular tumor antigen p53 (Homo sapiens) (UniProt P04637); assay: Activation of p53 pathway in human MOLM-13 cells assessed as increase in p53 level incubated for 24 hrs by Western blot analysis; format: cell-based; conditions: filed as activator, dose 0.038-0.6 µM
# Sequence of Cellular tumor antigen p53 (Homo sapiens) (P04637 whole entry, looked up): as the sequence (P04637 whole entry) above
# MOLM-13 [3] = assay: Induction of apoptosis in human MOLM-13 cells assessed as increase in PARP cleavage at 0.15 to 0.6 uM incubated for 24 hrs by Western blot analysis; format: functional, cell-based; conditions: dose 0.15-0.6 µM
# [4] = target: Cellular tumor antigen p53 (Homo sapiens) (UniProt P04637); assay: Activation of p53 pathway in human MOLM-13 cells assessed as increase in p21 mRNA level incubated for 24 hrs by qPCR analysis; format: cell-based; conditions: filed as activator, dose 0.038-0.6 µM
# MOLM-13 [5] = assay: Induction of apoptosis in human MOLM-13 cells assessed as viable cells at 0.1 uM incubated for 24 hrs by Annexin V-FITC/PI staining based flow cytometry (reference value: 95.1 %); format: functional; conditions: read-out: Activity
# MOLM-13 [6] = assay: Induction of apoptosis in human MOLM-13 cells assessed as early apoptotic cells at 0.1 uM incubated for 24 hrs by Annexin V-FITC/PI staining based flow cytometry (reference value: 4.44 %); format: functional
# MOLM-13 [7] = assay: Induction of apoptosis in human MOLM-13 cells assessed as viable cells at 0.3 uM incubated for 24 hrs by Annexin V-FITC/PI staining based flow cytometry (reference value: 95.1 %); format: functional; conditions: read-out: Activity
# MOLM-13 [8] = assay: Induction of apoptosis in human MOLM-13 cells assessed as necrotic cells at 0.3 uM incubated for 24 hrs by Annexin V-FITC/PI staining based flow cytometry (reference value: 0.020 %); format: functional
# MOLM-13 [9] = assay: Induction of apoptosis in human MOLM-13 cells assessed as early apoptotic cells at 2.7 uM incubated for 24 hrs by Annexin V-FITC/PI staining based flow cytometry (reference value: 4.44 %); format: functional
# MOLM-13 [10] = assay: Induction of apoptosis in human MOLM-13 cells assessed as late apoptotic cells at 2.7 uM incubated for 24 hrs by Annexin V-FITC/PI staining based flow cytometry (reference value: 0.457 %); format: functional
# MOLM-13 [11] = assay: Induction of apoptosis in human MOLM-13 cells assessed as late apoptotic cells at 24.3 uM incubated for 24 hrs by Annexin V-FITC/PI staining based flow cytometry (reference value: 0.457 %); format: functional
# [12] = Selectivity index, ratio of IC50 for HEK293 cells to IC50 for human A549 cells; format: toxicity; conditions: HEK293 cells versus A549 cells, read-out: Ratio IC50
# [13] = Selectivity index, ratio of IC50 for HEK293 cells to IC50 for human HeLa cells; format: toxicity; conditions: HEK293 cells versus HeLa cells, read-out: Ratio IC50
# [14] = target: Cellular tumor antigen p53 (Homo sapiens) (UniProt P04637); assay: Activation of p53 pathway in human HCT-116 cells assessed as increase in p21 level at 1 uM incubated for 24 hrs by Western blot analysis; format: cell-based; conditions: filed as activator
# [15] = target: Cellular tumor antigen p53 (Homo sapiens) (UniProt P04637); assay: Activation of p53 pathway in human HeLa cells assessed as increase in p21 level at 1 uM incubated for 24 hrs by Western blot analysis; format: cell-based
# A549 = assay: cells; conditions: Homo sapiens, A549, 96 h
# HeLa = assay: cells; conditions: Homo sapiens, 96 h
smiles,measurement,setting,value
COc1cc(C(=O)O)ccc1N1CN2[C@@H](CC(C)(C)C)[C@@]3(CNc4cc(Cl)ccc43)[C@@H](c3cccc(Cl)c3)[C@@H]2C1=O,Ki,[1],> 27 µM
same,Activity,[2],Dose-Dependent Effect
same,Activity,MOLM-13 [3],Active
same,Activity,[4],Dose-Dependent Effect
same,viability at 0.1 µM,MOLM-13 [5],83.8%
same,Activity,MOLM-13 [6],15.2%
same,viability at 0.3 µM,MOLM-13 [7],74.5%
same,Activity,MOLM-13 [8],0.179%
same,Activity,MOLM-13 [9],68.6%
same,Activity,MOLM-13 [10],1.18%
same,Activity,MOLM-13 [11],1.96%
same,selectivity ratio,[12],52
same,selectivity ratio,[13],0.8
same,Activity,[14],Active
same,Activity,[15],inactive
same,IC50,A549,0.184 µM
same,IC50,HeLa,12.3 µM
